Results taken from patent US20070213291A1, “Therapeutically useful synthetic oligonucleotides” (priority 1999, published 2007).

How the values were obtained:
Assay type in all cases: cell-based
[1] = tested on: THP-1 human acute monocytic leukemia cells; experiment: Cytokine production by THP-1 cells (ELISA); conditions: THP-1, 1×10^6 cells, 100 μg/ml, 48 h; for ↑ IL-12 (fold increase treated vs control cells): p70 complex and free p40
Experimental: (§1) Unless stated otherwise, 1×10^6 cells were incubated with 100 μg/ml of each of the sequences tested for 48 h at 37° C. in 5% CO2. Production of cytokines IL-6, IL-10, IL-12, IL-1beta and TNF-alpha was determined in pg/ml in 100 μl of culture supernatant using the appropriate commercial ELISA (BioSource, Camarillo Calif.). The IL-12 ELISA measures both IL-12 p70 complex and free p40 subunit. Results are expressed as the “fold” (×) increase in cytokine production by treated cells compared to control cells.
THP-1 human acute monocytic leukemia cells were incubated with 2, 3, 6, 9, 12, 14, 15 and 18 base GT sequences and production of the cyotkine IL-6 was determined (Table 35).
THP-1 human acute monocytic leukemia cells were incubated with 6 base GT, AG, CG, GG, AGT and CGT sequences and production of the cytokines IL-12 and IL-6 was determined (Table 36).
THP-1 human acute monocytic leukemia cells were incubated with 6 base GT sequences, having either an oxygen (phosphodiester) or a sulfur (phosphorothioate) as the nonbridging atom on the phosphate groups and production of the cytokine IL-12 was determined (Table 39).
THP-1 human acute monocytic leukemia cells were incubated with 6 base GT SEQ ID NO:25, having either an oxygen (phosphodiester) or a sulfur (phosphorothioate) as the nonbridging atom on the phosphate groups and production of the cytokine IL-12 was determined (Table 40).

[2] = tested on: Jurkat human leukemia T cells; experiment: Inhibition of Jurkat human leukemia T cell proliferation (MTT reduction); conditions: for % INHIBITION of Jurkat human leukemia T cell proliferation: 100 μg/ml sequence, 48 h, 2.5×10^5 cells/ml; for % INHIBITION of Jurkat proliferation at suboptimal concentration: 5.0 μg/ml of each 6 base sequence, alone or two together
Experimental: Cells were seeded in 6 (1 ml/well), 24 (0.5 ml/well) or 96 (0.1 ml/well) well flat-bottom microplates and were maintained at 37° C. in a 5% CO2 atmosphere. Unless stated otherwise, 2.5×10^5 cells/ml were incubated with 0 μg/ml (control) and 100 μg/ml (treated) of 2 to 45 base sequences containing A, C, G and T for 48 h.
MTT was measured at a wavelength of 570 nm using a multiplate spectrophotometer reader (ELX800, Bio-TEK Instruments Inc., Winooski, Vt.).
Jurkat human leukemia T cells are an atypical multi-drug resistant human suspension tumor cell model.

[3] = tested on: human peripheral blood mononuclear cells; experiment: Cytokine production by human PBMC (ELISA); conditions: PBMC of 7 healthy humans, 100 μg/ml, 48 h
Experimental: as §1
Peripheral blood mononuclear cells (hereinafter, “PBMCs”) were isolated from 7 healthy humans by Ficoll-Hypaque (Amersham Pharmacia Biotech, Baie d'Urfée, Québec, Canada) by density gradient centrifugation of whole blood. PBMCs were incubated with 6 base GT, AGT, CGT, AG, CG and GG sequences and production of the cytokines IL-1beta, IL-6, IL-10 and IL-12 were determined.

rhesus monkey PBMCs = experiment: Cytokine production by rhesus monkey PBMC (ELISA); conditions: PBMC of 4 healthy rhesus monkeys, 100 μg/ml, 48 h
Experimental: as §1
PBMCs were isolated from 4 healthy rhesus monkeys as in Example 35. PBMCs were incubated with 6 base GT, AGT, CGT, AG, CG ands GG sequences and production of the cytokines IL-6, IL-12 and TNF-alpha was determined (Table 42).

chimpanzee PBMCs = experiment: Cytokine production by chimpanzee PBMC (ELISA); conditions: PBMC of 4 healthy chimpanzees, 100 μg/ml, 48 h
Experimental: as §1
PBMCs were isolated from 4 healthy chimpanzees as in Example 35. Chimpanzee PBMCs were incubated with 6 base GT, AGT, CGT, AG, CG and GG sequences and production of the cytokines IL-10, IL-12 and TNF-alpha was determined (Table 41).

[4] = tested on: Jurkat human leukemia T cells; experiment: Cell cycle stage in Jurkat cells (propidium iodide flow cytometry); conditions: Jurkat, 24 h, 100 μg/ml
Experimental: Cell cycle stage was determined using a […]™ PLUS DNA commercial kit (Becton Dickinson). Briefly, nuclei from cells were obtained by dissolving the cell membrane in a nonionic detergent, eliminating the cell cytoskeleton and nuclear proteins with trypsin, digesting the cellular RNA with RNase and stabilizing the nuclear chromatin with spermine. Propidium iodide was added to the cell nuclei and their fluorescence was analyzed in a flow cytometer equipped with electronic doublet discrimination capability (FACSCalibur, Becton Dickinson, San Jose, Calif.). Accumulation of cells in G0/G1, early S (SE), mid S (SM), late S (SL) or G2/M phases of the cell cycle was analyzed using MODFIT LT software (Verity Software House Inc., Topsham, Mass.).
Exponentially growing Jurkat human leukemia T cells (Table 28) and MCF-7 human breast cancer cells (5×10^5 cells/ml) (Table 29) were incubated for 24 h with 2, 6, 15, 18, 27 and 45 base sequences containing A, C, G and T. The cells were collected and centrifuged and cell cycle stage was determined.
Jurkat human cell leukemia T cells (1×10^6 cells/ml) were incubated for 24 h with 6 base GT SEQ ID NO:25, conplementary 6 base AC SEQ ID NO:79 and 6 base GT SEQ ID NO:25+6 base AC SEQ ID NO:79. GT SEQ ID NO:25 and AC SEQ ID NO:79 were hybridized by mixing the oligonucleotides (1:1) and heating for 10 minutes at 65° C. As controls, GT SEQ ID NO:25 and AC SEQ ID NO:79 were heated for 10 minutes at 65° C. (Table 30).

Sequence	↑ IL-6 (fold increase treated vs control cells) [1] [x]	↑ IL-12 (fold increase treated vs control cells) [1] [x]	% INHIBITION of Jurkat human leukemia T cell proliferation [2] [%]	IL-1 beta fold increase: mean +/− SD [3]	IL-6 fold increase: mean +/− SD [3]	IL-10 fold increase: mean +/− SD [3]	IL-12 fold increase: mean +/− SD [3]	IL-10 fold increase: mean +/− SD (rhesus monkey PBMCs)	IL-12 fold increase: mean +/− SD (rhesus monkey PBMCs)	TNF-alpha fold increase: mean +/− SD (rhesus monkey PBMCs)	IL-10 fold increase: mean +/− SD (chimpanzee PBMCs)	IL-12 fold increase: mean +/− SD (chimpanzee PBMCs)	TNF-alpha fold increase: mean +/− SD (chimpanzee PBMCs)	% of cells in phase: G0/G1 [4] [%]	% of cells in phase: G2/M [4] [%]	% of cells in phase: SE [4] [%]	% of cells in phase: SL [4] [%]	% of cells in phase: SM [4] [%]	Arrest (cell cycle) [4]	% INHIBITION of Jurkat proliferation at suboptimal concentration [2] [%]
ATGTAT (unmodified DNA) [SEQ ID NO:30]	9.8	4.8	16	1.1 +/− 0.2 fold increase	4.6 +/− 4.4 fold increase	1.0 +/− 0.1 fold increase	1.3 +/− 0.2 fold increase	1.9 +/− 1.4 fold increase	6.0 +/− 1.9 fold increase	6.9 +/− 4.7 fold increase	1.4 +/− 0.4 fold increase	10.7 +/− 7.0 fold increase	5.9 +/− 3.3 fold increase							
CTGTCT [SEQ ID NO:36]	15.9	2.0	19	1.2 +/− 0.3 fold increase	5.3 +/− 3.6 fold increase	1.0 +/− 0.1 fold increase	1.2 +/− 0.3 fold increase	1.0 +/− 0.1 fold increase	10.7 +/− 4.6 fold increase	15.3 +/− 3.6 fold increase	3.0 +/− 2.1 fold increase	13.4 +/− 8.9 fold increase	12.4 +/− 6.3 fold increase							
GGAAGG (unmodified DNA) [SEQ ID NO:42]	29.2	4.1	22	3.5 +/− 3.9 fold increase	11.8 +/− 5.8 fold increase	1.1 +/− 0.2 fold increase	3.0 +/− 2.7 fold increase	1.2 +/− 0.2 fold increase	11.9 +/− 5.4 fold increase	16.5 +/− 4.5 fold increase	9.9 +/− 8.9 fold increase	15.6 +/− 10.6 fold increase	14.4 +/− 7.1 fold increase	48.0	34.1	19.8	5.8	8.5	End	
GGCCGG [SEQ ID NO:43]	17.1	3.1	29	1.5 +/− 0.9 fold increase	14.9 +/− 10.2 fold increase	1.2 +/− 0.3 fold increase	2.5 +/− 2.0 fold increase	1.0 +/− 0.2 fold increase	11.7 +/− 4.8 fold increase	16.9 +/− 3.5 fold increase	13.6 +/− 9.0 fold increase	15.1 +/− 10.2 fold increase	14.0 +/− 6.6 fold increase	26.5	18.7	21.3	10.7	22.8	End SM	
GGTTGG [SEQ ID NO:41]	16.0	3.3	43	3.2 +/− 3.0 fold increase	7.8 +/− 12.8 fold increase	1.0 +/− 0.1 fold increase	4.9 +/− 8.6 fold increase	1.9 +/− 1.5 fold increase	11.5 +/− 5.9 fold increase	14.1 +/− 8.2 fold increase	9.1 +/− 7.7 fold increase	15.3 +/− 10.0 fold increase	14.1 +/− 7.3 fold increase							4
TCGTTC [SEQ ID NO:37]	12.9	2.2	20	1.2 +/− 0.4 fold increase	7.5 +/− 9.8 fold increase	1.0 +/− 0.1 fold increase	1.4 +/− 1.1 fold increase	1.1 +/− 0.2 fold increase	10.0 +/− 3.8 fold increase	14.7 +/− 3.1 fold increase	3.4 +/− 2.6 fold increase	14.1 +/− 10.0 fold increase	11.4 +/− 6.4 fold increase							
TGGTTG [SEQ ID NO:29]	10.5	4.1	42	1.7 +/− 1.0 fold increase	9.3 +/− 12.1 fold increase	1.0 +/− 0.1 fold increase	3.3 +/− 4.2 fold increase	1.1 +/− 0.2 fold increase	11.1 +/− 4.2 fold increase	16.5 +/− 2.7 fold increase	3.1 +/− 2.0 fold increase	13.6 +/− 8.8 fold increase	12.4 +/− 7.3 fold increase							−1
TGTGTGTGTGTG [SEQ ID NO:13]	5.7		49	2.4 +/− 1.9 fold increase	12.1 +/− 6.5 fold increase	1.2 +/− 0.4 fold increase	4.4 +/− 5.3 fold increase													
